In PubChem BioAssay (NCI):
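1) Cells in 96-well plates. 2) Compound, 48 h, 5 concentrations. 3) Linear interpolation between surrounding doses. 4) Unreached endpoint = highest concentration. TGI: concentration producing complete growth inhibition.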

What was measured:
Test in all cases: NCI tumour cell line growth inhibition, 48 h
[1] = test system: IGROV1 ovarian
[2] = test system: PC-3 prostate
[3] = test system: SF-268 CNS
[4] = test system: UACC-62 melanoma
[5] = test system: SR leukemia
[6] = test system: SNB-19 CNS
[7] = test system: HOP-62 NSCLC
[8] = test system: OVCAR-3 ovarian
[9] = test system: OVCAR-4 ovarian
[10] = test system: SK-MEL-28 melanoma
[11] = test system: SN12C renal
[12] = test system: SF-539 CNS
[13] = test system: TK-10 renal
[14] = test system: HCC-2998 colon
[15] = test system: MOLT-4 leukemia
[16] = test system: OVCAR-8 ovarian
[17] = test system: NCI-H226 lung
[18] = test system: CAKI-1 renal
[19] = test system: 786-0 renal
[20] = test system: UO-31 renal
[21] = test system: MDA-MB-231 breast
[22] = test system: A498 renal
[23] = test system: CCRF-CEM leukemia
[24] = test system: SNB-75 CNS
[25] = test system: RPMI-8226 leukemia
[26] = test system: LOX IMVI melanoma
[27] = test system: MDA-N
[28] = test system: HL-60(TB) leukemia
[29] = test system: NCI/ADR-RES ovarian
[30] = test system: ACHN renal
[31] = test system: COLO 205 colon
[32] = test system: OVCAR-5 ovarian
[33] = test system: SK-MEL-5 melanoma
[34] = test system: K-562 leukemia
[35] = test system: U251 CNS
[36] = test system: SK-MEL-2 melanoma
[37] = test system: MCF7 breast
[38] = test system: T-47D breast
[39] = test system: MDA-MB-435
[40] = test system: HCT-116 colon
[41] = test system: HCT-15 colon
[42] = test system: UACC-257 melanoma
[43] = test system: MALME-3M melanoma
[44] = test system: SK-OV-3 ovarian
[45] = test system: HOP-92 NSCLC
[46] = test system: HS 578T breast
[47] = test system: SW-620 colon
[48] = test system: HT29 colon
[49] = test system: A549 NSCLC
[50] = test system: EKVX NSCLC
[51] = test system: SF-295 CNS
[52] = test system: NCI-H23 lung
[53] = test system: KM12 colon
[54] = test system: BT-549 breast
[55] = test system: NCI-H522 lung
[56] = test system: M14 melanoma
[57] = test system: DU-145 prostate
[58] = test system: NCI-H460 lung
[59] = test system: RXF 393 renal

## Cc1cc(Nc2ccc(S(=O)(=O)O)cc2)c2ccccc2n1
[1]
  TGI: > 100 µM
[2]
  TGI: > 100 µM
[3]
  TGI: > 100 µM
[4]
  TGI: > 100 µM
[5]
  TGI: > 100 µM
[6]
  TGI: > 100 µM
[7]
  TGI: > 100 µM
[8]
  TGI: > 100 µM
[9]
  TGI: > 100 µM
[10]
  TGI: > 100 µM
[11]
  TGI: > 100 µM
[12]
  TGI: > 100 µM
[13]
  TGI: > 100 µM
[14]
  TGI: > 100 µM
[15]
  TGI: > 100 µM
[16]
  TGI: > 100 µM
[17]
  TGI: > 100 µM
[18]
  TGI: > 100 µM
[19]
  TGI: > 100 µM
[20]
  TGI: > 100 µM
[21]
  TGI: > 100 µM
[22]
  TGI: > 100 µM
[23]
  TGI: > 100 µM
[24]
  TGI: > 100 µM
[25]
  TGI: > 100 µM
[26]
  TGI: > 100 µM
[27]
  TGI: > 100 µM
[28]
  TGI: > 100 µM
[29]
  TGI: > 100 µM
[30]
  TGI: > 100 µM
[31]
  TGI: > 100 µM
[32]
  TGI: > 100 µM
[33]
  TGI: > 100 µM
[34]
  TGI: > 100 µM
[35]
  TGI: > 100 µM
[36]
  TGI: > 100 µM
[37]
  TGI: > 100 µM
[38]
  TGI: > 100 µM
[39]
  TGI: > 100 µM
[40]
  TGI: > 100 µM
[41]
  TGI: > 100 µM
[42]
  TGI: > 100 µM
[43]
  TGI: > 100 µM
[44]
  TGI: > 100 µM
[45]
  TGI: > 100 µM
[46]
  TGI: > 100 µM
[47]
  TGI: > 100 µM
[48]
  TGI: > 100 µM
[49]
  TGI: > 100 µM
[50]
  TGI: > 100 µM
[51]
  TGI: > 100 µM
[52]
  TGI: > 100 µM
[53]
  TGI: > 100 µM
[54]
  TGI: > 100 µM
[55]
  TGI: > 100 µM
[56]
  TGI: > 100 µM
[57]
  TGI: > 100 µM

## O=C1C(Cl)=C(N2C(=O)CCC2=O)C(=O)c2ccccc21
[1]
  TGI: > 100 µM
[2]
  TGI: > 100 µM
[3]
  TGI: > 100 µM
[4]
  TGI: > 100 µM
[5]
  TGI: 82.5 µM
[6]
  TGI: > 100 µM
[7]
  TGI: > 100 µM
[8]
  TGI: 34.3 µM
[10]
  TGI: 48 µM
[11]
  TGI: 33.6 µM
[12]
  TGI: > 100 µM
[13]
  TGI: > 100 µM
[14]
  TGI: 60.3 µM
[15]
  TGI: > 100 µM
[16]
  TGI: > 100 µM
[17]
  TGI: > 100 µM
[18]
  TGI: 38.1 µM
[19]
  TGI: 37.9 µM
[20]
  TGI: 34.4 µM
[21]
  TGI: > 100 µM
[22]
  TGI: > 100 µM
[23]
  TGI: 21.8 µM
[24]
  TGI: > 100 µM
[26]
  TGI: 86.4 µM
[27]
  TGI: 35 µM
[58]
  TGI: > 100 µM
[28]
  TGI: 6.73 µM
[29]
  TGI: > 100 µM
[30]
  TGI: 29.1 µM
[31]
  TGI: 32.8 µM
[59]
  TGI: 45.7 µM
[32]
  TGI: 49.7 µM
[33]
  TGI: 36.7 µM
[34]
  TGI: 17.1 µM
[35]
  TGI: 63.3 µM
[36]
  TGI: > 100 µM
[37]
  TGI: 33.7 µM
[38]
  TGI: > 100 µM
[39]
  TGI: 44 µM
[40]
  TGI: 49.7 µM
[41]
  TGI: 27.2 µM
[42]
  TGI: 57.5 µM
[44]
  TGI: > 100 µM
[45]
  TGI: 26.6 µM
[46]
  TGI: > 100 µM
[47]
  TGI: 56.9 µM
[48]
  TGI: > 100 µM
[49]
  TGI: > 100 µM
[50]
  TGI: > 100 µM
[51]
  TGI: > 100 µM
[52]
  TGI: 79.8 µM
[53]
  TGI: > 100 µM
[54]
  TGI: 37.3 µM
[55]
  TGI: 59.6 µM
[56]
  TGI: > 100 µM
[57]
  TGI: 95 µM
